Laboratory results taken from a melting point compilation (Tetko et al.).

Structure (SMILES)	melting point [°C]
CSc1ccc(-c2csc(N)n2)cc1	219 to 221
CC(C)Cn1[nH]ccc1=NC(=O)OCC(F)(F)F	63 to 65
O=C(O)c1ccc(NS(=O)(=O)c2cc(Cl)sc2Cl)cc1	189 to 191
NC(Cn1cncn1)c1ccccc1 (stereo not given)	87 to 89
O=C(O)c1cccc(NS(=O)(=O)c2ccc3ccccc3c2)c1	205 to 207
O=Cc1ccc(OC(=O)c2cccc([N+](=O)[O-])c2)cc1	143 to 145
Nc1nnc(CC2CCCC2)o1	174 to 176
Nc1ccccc1C(=O)Nc1ccncc1	144 to 146
CNS(=O)(=O)c1cc(C(=O)O)ccc1Cl	226 to 228
OC1(Cc2ccc(F)cc2)CCNC1 (stereo not given)	73 to 75
Cc1cc(C)nc(-n2nc(C(=O)O)cc2C)n1	189 to 191
O=C(O)c1ccc(Oc2ccc(F)cc2F)cc1	172 to 174
CC(C)(O)c1ccc(Br)cc1	42 to 44
COC(=O)c1cc(F)c(Br)c([N+](=O)[O-])c1	66 to 68
Cc1ccc(C)n1-c1ccc(Br)cc1	61 to 63
CC(NO)c1ccccc1 (stereo not given)	73 to 75
Cn1nc(C(F)(F)F)c(C(=O)O)c1C(F)(F)F	127 to 129
CNC(=O)c1c(Cl)ccc(S(=O)(=O)NC)c1Cl	231 to 233
COC(=O)c1sc2nc(CCl)nc(Cl)c2c1C	125 to 127
Cc1cc(NC(=O)C2CCCC2)sc1C(=O)O	174 to 176
CS(=O)(=O)CCCC(=O)O	78 to 80
O=C(NCCCl)OCC(F)(F)F	31 to 33
Cn1ccc(C(=O)N2CCC(CO)CC2)cc1=O	174 to 176
CCNc1ccc(S(=O)(=O)C(F)(F)F)cc1	63 to 65
NNC(=O)Nc1ccc(S(N)(=O)=O)cc1	216 to 218

Structure (SMILES)	melting point [°C]
CC1(C)NC(=O)N2C1=NC(=N)C2(C)C	236 to 238
Cc1cc(C(=O)CCl)c(C)n1-c1cc(Cl)cc(Cl)c1	113 to 115
CN(C)c1ncncc1N	97 to 99
N=C(N)NS(=O)(=O)c1ccccc1	211 to 213
CNC(=O)c1cccc(O)c1	108 to 110
COc1ccc(C(=O)c2ccccc2C(=O)O)cc1F	147 to 149
Cc1[nH]ncc1Cl	64 to 66
Nc1nc(CN2CCNCC2)nc2ccccc12	213 to 215
Cc1ccc(NC(=O)c2cccc(Cl)c2)c(C(=O)O)c1	191 to 193
NCc1nnc2n1CCCC2	99 to 101
CN(C)C(=O)Sc1ccc(CCl)cc1	78 to 80
CCOC(=O)N1CCC(NC(N)=O)CC1	203 to 205
Clc1cc(OCc2ccccc2)ccn1	93 to 95
C=CCOc1ccccc1C(=O)O	58 to 60
O=C(Cc1ccc2ccccc2c1)NO	185 to 187
CC(C)(C)OC(=O)NC1CCC(O)CC1 (stereo not given)	169 to 171
Cc1ccc(Br)cc1N	31 to 33
COC(=O)c1ccc(F)c(Cl)c1F	47 to 49
O=C(O)c1ccon1	143 to 145
CCS(=O)(=O)Nc1ccc(N)cc1C	101 to 103
O=C(O)CC(O)(c1ccccc1)C(F)(F)F (stereo not given)	133 to 135
Cc1nc2sccn2c1CO	180 to 182
O=C1NC2(CCCCC2)NC2=C1CCCC2	193 to 195
CC(C(=O)O)c1ccc(Br)cc1 (stereo not given)	54 to 56
Brc1ccc2c(c1)c1cc(Br)ccc1n2CC1CO1 (stereo not given)	142 to 144

Structure (SMILES)	melting point [°C]
COC(=O)c1ccc(Cl)c(S(=O)(=O)Cl)c1	103 to 105
Fc1c(Br)cncc1Br	97 to 99
CCOC(=O)C(=O)CC(=O)c1ccc(Cl)cc1	62 to 64
C#CCOc1ccc(N)cc1	49 to 51
Cc1cc(C)n(Cc2ccc(C(=O)O)cc2)n1	179 to 181
CCCOc1ccc(C(=O)NN)cc1OC	146 to 148
C=CCNc1nc2c(s1)CCCC2	77 to 79
COC(=O)c1nc2nc(C(C)C)cc(Cl)n2n1	104 to 106
CC(Cc1ccccc1Cl)C(=O)O (stereo not given)	56 to 58
c1ccc2[nH]c(C3CCNCC3)nc2c1	253 to 255
COC(=O)c1cc(S(=O)(=O)Cl)ccc1Br	89 to 91
Cc1nn(-c2ccc(F)cc2)c(Cl)c1CO	134 to 136
Nc1cc(-c2ccc(Cl)cc2)nn1-c1ccccc1	191 to 193
O=Cc1ccc(-c2ccc(Br)cc2)s1	110 to 112
Cc1noc(C)c1S(=O)(=O)N1CCCC1C(=O)O (stereo not given)	133 to 137
CS(=O)(=O)Nc1cccc(O)c1	93 to 95
CCOc1cc(C#N)cc(Cl)c1O	126 to 128
Cc1ccc(CN)c(S(C)(=O)=O)c1	32 to 34
O=C(O)CS(=O)(=O)Cc1cccc(Br)c1	173 to 175
CCC(NC(=O)OC(C)(C)C)(C(N)=O)C(C)C (stereo not given)	157 to 159
O=C(O)c1cc([N+](=O)[O-])c(F)cc1Br	171 to 173
COc1ccc(-c2nnc(Cl)c3ccccc23)cc1	148 to 150
O=Cc1cc(C(=O)O)cs1	173 to 175
CC(O)c1nc2cc(C(F)(F)F)ccc2n1C (stereo not given)	99 to 101
Nc1ccc(NS(=O)(=O)c2c(Cl)cccc2Cl)cc1	161 to 163

Structure (SMILES)	melting point [°C]
CC(C)C(=O)Nc1ccc(Cl)c(C(=O)O)c1	229 to 231
NS(=O)(=O)CC1CCCC1	42 to 44
Nc1cccc(NC(=O)c2cccs2)c1	134 to 136
O=Cc1ccc(OCc2cscn2)cc1	78 to 80
CS(=O)(=O)Cc1ccc(N)cc1F	152 to 154
CC(NC(=O)CCl)C(=O)O (stereo not given)	125 to 127
OCCNc1ccc(-c2ccccc2)nn1	162 to 164
N#Cc1ccccc1Oc1ccc(CCl)cc1	54 to 56
O=C(O)CCC(Cc1ccc(Cl)cc1)C(=O)O (stereo not given)	137 to 139
CCOc1cc(Br)c(C=O)cc1OCC	71 to 72
N#Cc1ccc(CBr)c(F)c1	75 to 77
CC(N)c1cccc(NC(=O)c2ccccc2)c1 (stereo not given)	115 to 117
NC(=O)C(Cl)c1cccc(Br)c1 (stereo not given)	109 to 111
Cc1nn(C)c(C)c1CCC(=O)O	137 to 139
Nc1cccc(OCc2ccc(Cl)cc2)c1	87 to 89
Cc1csc(NC(C)C(=O)O)n1 (stereo not given)	189 to 191
COc1ccc(N)cc1S(=O)(=O)N(C)C	144 to 146
CC(CS(=O)(=O)c1ccc(Br)cc1)C(=O)O (stereo not given)	144 to 146
Cc1nc(C)c(C)c(O)n1	276 to 278
OCCOc1ccc(O)cc1	86 to 88
OCc1ccc2cn[nH]c2c1	158 to 160
Clc1nc(CN2CCCCC2)nc2sc3c(c12)CCCC3	51 to 53
OC(c1ccccc1)c1cccc(Cl)c1Cl (stereo not given)	79 to 81
CC(NC(=O)CCl)c1ccc(F)cc1 (stereo not given)	71 to 73
Cc1c(N)cccc1COC1CCCCC1	54 to 56

Next, values leading:

melting point [°C]	Structure (SMILES)
231 to 233	O=C(c1ccccn1)N1CCNCC1
141 to 143	Cc1cc(C)c2ncc(C#N)c(Cl)c2c1
179 to 181	O=C(O)CCCN1C(=O)CCc2ccccc21
128 to 130	Cc1occc1-c1cc(N)n(CCO)n1
283 to 285	CNC(=O)c1n[nH]c(=O)c2ccccc12
109 to 111	O=C(O)CSCc1cccnc1
137 to 138	O=S(=O)(c1ccc(OCCBr)cc1)N1CCOCC1
161 to 163	CC(C)c1c(C(=O)O)cnn1-c1cccc(Cl)c1
269 to 271	Cc1noc2ncnc(N)c12
139 to 141	Cc1ccc(-n2c(C)c(Br)c3c2CCCC3=O)cc1
116 to 118	Oc1cccc2c1NCCC2
99 to 101	NC1CCN(c2cccc(Cl)c2)C1=O (stereo not given)
76 to 80	COc1ccc(-c2noc(CCl)n2)c(OC)c1
197 to 199	FC(F)(F)c1ccccc1Nc1nnc(S)s1
44 to 46	COc1ccc2c(c1)C(=O)CCO2
170 to 172	CN(C)C(=O)Sc1cnc2c(c1)c(=O)n(C)c(=O)n2C
158 to 160	Brc1cnc2nccnc2c1
251 to 253	CSc1nn(C)c2nc[nH]c(=O)c12
110 to 112	O=C(O)Cn1nc(-c2ccc(F)cc2)oc1=O
152 to 154	CC(C)(C)c1ccc(Nc2ncccc2C(N)=S)cc1
250 to 252	O=c1[nH]c2cc(Cl)ccc2c(=O)o1
112 to 114	O=C(O)c1cccc(Oc2cnccn2)c1
248 to 250	O=c1cc(-c2cccc(Cl)c2)[nH]c(=O)[nH]1

melting point [°C]	Structure (SMILES)
226 to 228	O=C(O)c1cnc(-c2ccoc2)s1
249 to 251	CNc1ccc(C(=O)O)cn1
121 to 123	Cc1nn(-c2ccc(Cl)cc2)cc1C=O
206 to 208	Cc1nccc(C(=O)O)n1
232 to 234	O=C(O)c1nn(-c2ccc(Br)cc2)c2c1CCCC2
93 to 95	NC(CN1CCc2ccccc21)=NO
149 to 151	O=c1cc(CCl)nc2ccc(Cl)cn12
144 to 148	CCc1ccc(N2CC(C(=O)O)CC2=O)cc1 (stereo not given)
143 to 145	Nc1nonc1-c1ccc(Cl)c(Cl)c1
75 to 77	C=CCNC(=O)c1cccnc1Cl
214 to 216	O=C(O)Cn1c(=O)oc2cc([N+](=O)[O-])ccc21
213 to 215	O=C1OCCc2cnc3ccnn3c21
102 to 104	O=C(O)c1ccc2c(c1)ncn2Cc1ccccc1
152 to 154	Cn1ncc2c(=O)[nH]nnc21
209 to 211	COC(=O)c1ccn2c(I)cnc2c1
170 to 172	NC(=O)N1CCc2ccccc2C1
233 to 235	O=C(O)C=Cc1cnc2ccccc2n1
137 to 139	N#Cc1cnn(-c2ccccc2)c1N
142 to 144	Cc1nnc(Sc2ccc(N)c(C)c2)s1
145 to 147	O=C(NCc1ccco1)n1ccnc1
208 to 210	CC(NC(=O)c1[nH]nc2ccccc12)C(=O)O (stereo not given)
225 to 227	CN1C(=O)CCC(C(=O)O)C1c1cnn(C)c1 (stereo not given)
